Results as given in PMC9182378, “Bicyclic Isoxazoline Derivatives: Synthesis and Evaluation of Biological Activity” (Molecules, 2022).

Key:
St. aureus [1] = assay: Minimum inhibitory concentration (CLSI); assay type: cell-based, Staphylococcus aureus; conditions: ATCC 29213 strain used for MIC
Experimental: Minimum inhibitory concentrations (MIC) were determined for the selected active strains according to the Performance Standards for Antimicrobial Susceptibility Testing (CLSI). The Staphylococcus aureus ATCC 29213 strain was used for MIC measurements. Amphotericin B, clotrimazole, vancomycin and ampicillin were used as positive control.

B. subtilis [2] = assay: Minimum inhibitory concentration (CLSI); assay type: cell-based, Bacillus subtilis
WI38 = assay: MTT assay cytotoxicity; assay type: cell-based; conditions: Homo sapiens, WI-38, WI38 (fibroblasts, normal), 72 h
HCT-116 = assay: MTT assay cytotoxicity; assay type: cell-based; conditions: Homo sapiens, HCT-116 (colon cancer), 72 h
MCF-7 = assay: MTT assay cytotoxicity; assay type: cell-based; conditions: Homo sapiens, MCF7, MCF-7 (breast cancer), 72 h
A-549 = assay: MTT assay cytotoxicity; assay type: cell-based; conditions: Homo sapiens, A549, A-549 (lung cancer), 72 h
Hek293t = assay: MTT assay cytotoxicity; assay type: cell-based; conditions: Homo sapiens, HEK-293T, Hek293t (embryonic kidney, normal), 72 h
[3] = test system: cancer or normal cell lines; assay: MTT assay cytotoxicity, summary over the cell line panel; conditions: for toxicity against cancer or normal cell lines: either cancer or normal cell lines; for IC50: read-out: IC50 against cancer cell lines (range over compounds and lines)
in vitro = conditions: dog
[4] = test system: Rimantadine-resistant M2 proton channel; design: method as in PMID 27187859; conditions: cited from earlier work
A. niger [5] = assay: Minimum inhibitory concentration (CLSI); assay type: cell-based, Aspergillus niger
C. albicans [6] = assay: Minimum inhibitory concentration (CLSI); assay type: cell-based, Candida albicans
E. coli = assay: Minimum inhibitory concentration (CLSI); assay type: cell-based, Escherichia coli
B. subtilis [7] = assay: Agar-diffusion assay (zone of inhibition); conditions: Bacillus subtilis, ATCC6633, 24 h
Experimental: (§1) Initial screening of antimicrobial activity was performed by using agar-diffusion assay against a number of microorganisms: fungi (Aspergillus niger INA 00760), yeast (Candida albicans CBS 8836), gram-positive bacteria (Bacillus subtilis ATCC 6633, Staphylococcus aureus ATCC 25923) and gram-negative bacteria (Escherichia coli ATCC 25922). For the bacterial strains, the agar-diffusion method on the Mueller–Hinton medium was performed using direct colony suspension, equivalent to a 0.5 McFarland standard as inoculate. For the fungal test-strains, the Sabouraud medium was used with 0.2% glucose, inoculated with direct colony suspension (10^6 CFU/100 mL). The tested compounds were applied on Petri dishes on sterile paper disks (6 mm); 100 µg/disk inhibition zones were measured after 24 h incubation at 37 °C. As a positive control, standard antibiotic disks containing 30 µg vancomycin (for B. subtilis), 10 µg gentamicin (for E. coli), and 40 µg fluconazole (for A. niger and C. albicans) were used.

St. aureus [8] = assay: Agar-diffusion assay (zone of inhibition); conditions: Staphylococcus aureus, ATCC25923, 24 h
Experimental: as §1

C. albicans [9] = assay: Agar-diffusion assay (zone of inhibition); conditions: Candida albicans, CBS8836, 24 h
Experimental: as §1

A. niger [10] = assay: Agar-diffusion assay (zone of inhibition); conditions: Aspergillus niger, 24 h
Experimental: as §1

Structure (SMILES) | IC50 (WI38) | IC50 (HCT-116) | melting point | IC50 (MCF-7) | IC50 (A-549) | also measured
CN[C@H](CC(C)C)C(=O)N[C@H]1C(=O)N[C@@H](CC(N)=O)C(=O)N[C@H]2C(=O)N[C@H]3C(=O)N[C@H](C(=O)N[C@H](C(=O)O)c4cc(O)cc(O)c4-c4cc3ccc4O)[C@H](O)c3ccc(c(Cl)c3)Oc3cc2cc(c3O[C@@H]2O[C@H](CO)[C@@H](O)[C@H](O)[C@H]2O[C@H]2C[C@](C)(N)[C@H](O)[C@H](C)O2)Oc2ccc(cc2Cl)[C@H]1O [Vancomycin, reference compound] | – | – | – | – | – | MIK (St. aureus [1]): 0.5 to 2 µg/mL; MIK (B. subtilis [2]): 0.25 to 1 µg/mL
Cc1cc(C)c(S(=O)(=O)NC2=NOC3(CCCCCCC3)C2)c(C)c1 [Compound 5e, 2,4,6-Trimethyl-N-(1-oxa-2-azaspiro[4.7]dodec-2-en-3-yl)benzenesulfonamide] | 95.5 ± 14.3 µM | 70.1 ± 11.2 µM | 135 to 136 °C | 79 ± 36 µM | 61 ± 21 µM | –
O=S(=O)(NC1=NOC2(CCCCCCC2)C1)c1ccc(F)cc1F [Compound 5h, 2,4-Difluoro-N-(1-oxa-2-azaspiro[4.7]dodec-2-en-3-yl)benzenesulfonamide] | – | 97.1 ± 34 µM | 118 to 119 °C | 94.7 ± 15.5 µM | 77.1 ± 10.2 µM | IC50 (Hek293t): 60 ± 17 µM
NC1=NOC2CCCCCCC12 (stereo not drawn) [Compound 4, 3a,4,5,6,7,8,9,9a-Octahydrocycloocta[d]isoxazol-3-amine] | > 150 µM | > 500 µM | – | > 150 µM | > 150 µM | toxicity against cancer or normal cell lines [3]: not toxic; CC50 (in vitro): > 1790 µM
CC1CCC2(CC1)SC(N)=NC2(C)C (stereo not drawn) [A, spirothiazamenthane] | – | – | – | – | – | activity against the Rimantadine-resistant M2 proton channel [4]: inactive
O=[N+]([O-])c1ccccc1S(=O)(=O)NC1=NOC2(CCCCCCC2)C1 [Compound 5i, 2-Nitro-N-(1-oxa-2-azaspiro[4.7]dodec-2-en-3-yl)benzenesulfonamide] | – | – | 164 to 165 °C | – | – | –
O=S(=O)(NC1=NOC2(CCCCCCC2)C1)c1cccs1 [Compound 5k, N -(1-Oxa-2-azaspiro[4.7]dodec-2-en-3-yl)thiophene-2-sulfonamide] | – | 131 ± 80 µM | 149 to 151 °C | > 150 µM | 111 ± 20 µM | IC50 (Hek293t): 65.5 ± 13.5 µM
O=S(=O)(Cc1ccccc1)NC1=NOC2(CCCCCCC2)C1 [Compound 5b, N-(1-Oxa-2-azaspiro[4.7]dodec-2-en-3-yl)-1-phenylmethanesulfonamide] | > 500 µM | > 200 µM | 68 to 70 °C | 138 ± 25 µM | – | –
C[C@@H]1[C@H](O)[C@@H](C)/C=C/C=C/C=C/C=C/C=C/C=C/C=C/[C@H](O[C@@H]2O[C@H](C)[C@@H](O)[C@H](N)[C@@H]2O)C[C@@H]2O[C@](O)(C[C@@H](O)C[C@@H](O)[C@H](O)CC[C@@H](O)C[C@@H](O)CC(=O)O[C@H]1C)C[C@H](O)[C@H]2C(=O)O [Amphotericin B, reference compound] | – | – | – | – | – | MIK (A. niger [5]): 0.04 to 1.5 µg/mL; MIK (C. albicans [6]): 2 µg/mL
O=S(=O)(NC1=NOC2(CCCCCCC2)C1)c1ccc2c(c1)OCCO2 [Compound 5f, N-(1-Oxa-2-azaspiro[4.7]dodec-2-en-3-yl)-2,3-dihydrobenzo[b][1,4]dioxine-6-sulfonamide] | 42 ± 8.6 µM | 23.6 ± 4.5 µM | 192 to 194 °C | 64.1 ± 8 µM | 119 µM | –
CC1(C)S[C@@H]2[C@H](NC(=O)[C@H](N)c3ccccc3)C(=O)N2[C@H]1C(=O)O [Ampicillin, reference compound] | – | – | – | – | – | MIK (E. coli): 2 to 8 µg/mL
CC(N)C12CC3CC(CC(C3)C1)C2 (stereo not drawn) [Rimantadine, reference compound] | – | – | – | – | – | CC50 (in vitro): 406 ± 26 µM
O=[N+]([O-])C1=NOC2CCCCCCC12 (stereo not drawn) [Compound 2, 3-Nitro-3a,4,5,6,7,8,9,9a-octahydrocycloocta[d]isoxazole] | 27.4 ± 4 µM | 17.7 ± 5 µM | 52 to 53 °C | 35.4 ± 4.5 µM | 40.4 ± 2.5 µM | MIK (E. coli): > 256 µg/mL; IC50 [3]: 17.7 to 58.8 µM; zone of inhibition at 100 µg/disc (B. subtilis [7]): 16 mm; MIK (A. niger [5]): 16 µg/mL; zone of inhibition at 100 µg/disc (St. aureus [8]): 25 mm; zone of inhibition at 100 µg/disc (C. albicans [9]): 19 mm; MIK (St. aureus [1]): 8 to 16 µg/mL; MIK (C. albicans [6]): 32 µg/mL; zone of inhibition at 100 µg/disc (A. niger [10]): 15 mm; MIK (B. subtilis [2]): 32 µg/mL
NC1=NOC2(CCCCCCC2)C1 [Compound 3, 1-Oxa-2-azaspiro[4.7]dodec-2-en-3-amine] | > 150 µM | > 500 µM | – | > 150 µM | > 150 µM | toxicity against cancer or normal cell lines [3]: not toxic; CC50 (in vitro): > 550 µM
O=S(=O)(NC1=NOC2(CCCCCCC2)C1)c1ccc2ccccc2c1 [Compound 5j, N-(1-Oxa-2-azaspiro[4.7]dodec-2-en-3-yl)naphthalene-2-sulfonamide] | – | 19 ± 3 µM | 143 to 145 °C | 26.8 ± 3.5 µM | 27.5 ± 4.2 µM | IC50 [3]: 17.7 to 58.8 µM; IC50 (Hek293t): 23.1 ± 6.5 µM
O=S(=O)(NC1=NOC2(CCCCCCC2)C1)c1cccnc1 [Compound 5l, N -(1-Oxa-2-azaspiro[4.7]dodec-2-en-3-yl)pyridine-3-sulfonamide] | – | 133 ± 68 µM | 145 to 146 °C | > 150 µM | > 150 µM | IC50 (Hek293t): > 500 µM
Clc1ccccc1C(c1ccccc1)(c1ccccc1)n1ccnc1 [Clotrimazole, reference compound] | – | – | – | – | – | MIK (C. albicans [6]): 4 µg/mL
CC(=O)Nc1ccc(S(=O)(=O)NC2=NOC3(CCCCCCC3)C2)cc1 [Compound 5g, N-(4-(N-1-Oxa-2-azaspiro[4.7]dodec-2-en-3-ylsulfamoyl)phenyl)acetamide] | – | 41.3 ± 17 µM | 171 to 173 °C (dec.) | 54.5 ± 15 µM | 54 ± 14 µM | IC50 [3]: 17.7 to 58.8 µM; IC50 (Hek293t): 30.4 ± 14.5 µM
Cc1ccc(S(=O)(=O)NC2=NOC3(CCCCCCC3)C2)cc1 [Compound 5d, 4-Methyl-N-(1-oxa-2-azaspiro[4.7]dodec-2-en-3-yl)benzenesulfonamide] | 54.6 ± 7 µM | – | 122 to 124 °C | 94 ± 30 µM | 143 ± 50 µM | –
O=S(=O)(NC1=NOC2(CCCCCCC2)C1)c1ccccc1 [Compound 5c, N-(1-Oxa-2-azaspiro[4.7]dodec-2-en-3-yl)benzenesulfonamide] | 113 µM | 63 ± 18 µM | 156 to 157 °C | 116 ± 30 µM | 163 µM | –
CS(=O)(=O)NC1=NOC2(CCCCCCC2)C1 [Compound 5a, N-(1-Oxa-2-azaspiro[4.7]dodec-2-en-3-yl)methanesulfonamide] | – | – | 110 to 111 °C | – | – | –
O=[N+]([O-])C1=NOC2(CCCCCCC2)C1 [Compound 1, 3-Nitro-1-oxa-2-azaspiro[4.7]dodec-2-ene] | 42.2 ± 13 µM | 20.8 ± 5 µM | 55 to 57 °C | 58.8 ± 5 µM | 57.1 ± 7 µM | MIK (E. coli): > 256 µg/mL; IC50 [3]: 17.7 to 58.8 µM; zone of inhibition at 100 µg/disc (B. subtilis [7]): 12 mm; MIK (A. niger [5]): 8 µg/mL; zone of inhibition at 100 µg/disc (St. aureus [8]): 15 mm; zone of inhibition at 100 µg/disc (C. albicans [9]): 24 mm; MIK (St. aureus [1]): 32 µg/mL; MIK (C. albicans [6]): 8 µg/mL; zone of inhibition at 100 µg/disc (A. niger [10]): 15 mm; MIK (B. subtilis [2]): 32 µg/mL
